Source: patent US20240043404A1 (AbbVie Inc., priority 2009, published 2024)

system: RS4;11 cells; assay: RS4;11 cell viability assay (CellTiter Glo); type: cell-based, human; conditions: Homo sapiens, RS4-11, 48 h, 50,000 cells per well, 10% human serum, 48 hours; read-out: RS4; 11 EC50 Values;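 further: acute lymphoblastic leukemia line RS4,11, EC50 derived from percentage of viable cells after treatment relative to untreated controls, cell killing taken as a measure of Bcl-2 inhibition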
Method: The acute lymphoblastic leukemia (ALL) cell line RS4;11 was used as the primary human cell line to assess the cellular activity of Bcl-2 selective agents in vitro and their efficacy in vivo.
Cell cytotoxicity EC50 values were assessed using CellTiter Glo (Promega) according to the manufacturer's recommendations. The EC50 values were determined as a percentage of viable cells following treatment compared to the untreated control cells.

Structure (SMILES)	EC50
CC1(C)CCC(CN2CCN(c3ccc(C(=O)NS(=O)(=O)c4ccc(NCCC#N)c([N+](=O)[O-])c4)c(Oc4cnc5[nH]ccc5c4)c3)CC2)=C(c2ccc(Cl)cc2)C1 [Example 62, 4-(4-{[2-(4-chlorophenyl)-4,4-dimethylcyclohex-1-en-1-yl]methyl}piperazin-1-yl)-N-({4-[(2-cyanoethyl)amino]-3-nitrophenyl}sulfonyl)-2-(1H-pyrrolo[2,3-b]pyridin-5-yloxy)benzamide]	25.1 nM
CC1(C)CC(c2ccc(Cl)cc2)=C(CN2CCN(c3ccc(C(=O)NS(=O)(=O)c4ccc(N[C@H]5CC[C@@H](N6CCOCC6)CC5)c([N+](=O)[O-])c4)c(Oc4cnc5[nH]ccc5c4)c3)CC2)CO1 [Example 63, Cis-4-(4-{[4-(4-chlorophenyl)-6,6-dimethyl-5,6-dihydro-2H-pyran-3-yl]methyl}piperazin-1-yl)-N-({4-[(4-morpholin-4-ylcyclohexyl)amino]-3-nitrophenyl}sulfonyl)-2-(1H-pyrrolo[2,3-b]pyridin-5-yloxy)benzamide]	7.51 nM
CC1(C)CCC(CN2CCN(c3ccc(C(=O)NS(=O)(=O)c4ccc(N[C@H]5CC[C@H](N(CC6CC6)CC6CC6)CC5)c([N+](=O)[O-])c4)c(Oc4cnc5[nH]ccc5c4)c3)CC2)=C(c2ccc(Cl)cc2)C1 [Example 64, Trans-N-{[4-({4-[bis(cyclopropylmethyl)amino]cyclohexyl}amino)-3-nitrophenyl]sulfonyl}-4-(4-{[2-(4-chlorophenyl)-4,4-dimethylcyclohex-1-en-1-yl]methyl}piperazin-1-yl)-2-(1H-pyrrolo[2,3-b]pyridin-5-yloxy)benzamide]	0.25 nM
CN1CCC(CNc2ccc(S(=O)(=O)NC(=O)c3ccc(N4CCN(CC5=C(c6ccc(Cl)cc6)CC(C)(C)CC5)CC4)cc3Oc3cnc4[nH]ccc4c3)cc2[N+](=O)[O-])CC1 [Example 65, 4-(4-{[2-(4-chlorophenyl)-4,4-dimethylcyclohex-1-en-1-yl]methyl}piperazin-1-yl)-N-[(4-{[(1-methylpiperidin-4-yl)methyl]amino}-3-nitrophenyl)sulfonyl]-2-(1H-pyrrolo[2,3-b]pyridin-5-yloxy)benzamide]	0.25 nM
CC1(C)CCC(CN2CCN(c3ccc(C(=O)NS(=O)(=O)c4ccc(NCC5COCCN5)c([N+](=O)[O-])c4)c(Oc4cnc5[nH]ccc5c4)c3)CC2)=C(c2ccc(Cl)cc2)C1 (stereo not shown) [Example 66, 4-(4-{[2-(4-chlorophenyl)-4,4-dimethylcyclohex-1-en-1-yl]methyl}piperazin-1-yl)-N-({4-[(morpholin-3-ylmethyl)amino]-3-nitrophenyl}sulfonyl)-2-(1H-pyrrolo[2,3-b]pyridin-5-yloxy)benzamide]	18.9 nM
CN1CCN(Nc2ccc(S(=O)(=O)NC(=O)c3ccc(N4CCN(CC5=C(c6ccc(Cl)cc6)CC(C)(C)OC5)CC4)cc3Oc3cnc4[nH]ccc4c3)cc2[N+](=O)[O-])CC1 [Example 67, 4-(4-{[4-(4-chlorophenyl)-6,6-dimethyl-5,6-dihydro-2H-pyran-3-yl]methyl}piperazin-1-yl)-N-({4-[(4-methylpiperazin-1-yl)amino]-3-nitrophenyl}sulfonyl)-2-(1H-pyrrolo[2,3-b]pyridin-5-yloxy)benzamide]	49.5 nM
CC1(C)CCC(CN2CCN(c3ccc(C(=O)NS(=O)(=O)c4ccc(OCC#CCN5CCOCC5)c([N+](=O)[O-])c4)c(Oc4cnc5[nH]ccc5c4)c3)CC2)=C(c2ccc(Cl)cc2)C1 [Example 68, 4-(4-{[2-(4-chlorophenyl)-4,4-dimethylcyclohex-1-en-1-yl]methyl}piperazin-1-yl)-N-({4-[(4-morpholin-4-ylbut-2-ynyl)oxy]-3-nitrophenyl}sulfonyl)-2-(1H-pyrrolo[2,3-b]pyridin-5-yloxy)benzamide]	108 nM
C#Cc1cc(S(=O)(=O)NC(=O)c2ccc(N3CCN(CC4=C(c5ccc(Cl)cc5)CC(C)(C)CC4)CC3)cc2Oc2cnc3[nH]ccc3c2)cnc1OCC1CCOCC1 [Example 69, 4-(4-{[2-(4-chlorophenyl)-4,4-dimethylcyclohex-1-en-1-yl]methyl}piperazin-1-yl)-N-{[5-ethynyl-6-(tetrahydro-2H-pyran-4-ylmethoxy)pyridin-3-yl]sulfonyl}-2-(1H-pyrrolo[2,3-b]pyridin-5-yloxy)benzamide]	1720 nM
CC1(C)CCC(CN2CCN(c3ccc(C(=O)NS(=O)(=O)c4ccc5nc[nH]c(=O)c5c4)c(Oc4cnc5[nH]ccc5c4)c3)CC2)=C(c2ccc(Cl)cc2)C1 [Example 70, 4-(4-{[2-(4-chlorophenyl)-4,4-dimethylcyclohex-1-en-1-yl]methyl}piperazin-1-yl)-N-[(4-oxo-3,4-dihydroquinazolin-6-yl)sulfonyl]-2-(1H-pyrrolo[2,3-b]pyridin-5-yloxy)benzamide]	> 5000 nM
O=C(NS(=O)(=O)c1ccc(N[C@H]2CC[C@H](N3CCOCC3)CC2)c([N+](=O)[O-])c1)c1ccc(N2CCN(CC3=C(c4ccc(Cl)cc4)CCC4(CCCC4)C3)CC2)cc1Oc1cnc2[nH]ccc2c1 [Example 71, Trans-4-(4-{[8-(4-chlorophenyl)spiro[4.5]dec-7-en-7-yl]methyl}piperazin-1-yl)-N-({4-[(4-morpholin-4-ylcyclohexyl)amino]-3-nitrophenyl}sulfonyl)-2-(1H-pyrrolo[2,3-b]pyridin-5-yloxy)benzamide]	91.6 nM
CO[C@H]1CC[C@@H](CNc2ccc(S(=O)(=O)NC(=O)c3ccc(N4CCN(CC5=C(c6ccc(Cl)cc6)CC(C)(C)OC5)CC4)cc3Oc3cnc4[nH]ccc4c3)cc2[N+](=O)[O-])CC1 [Example 72, Cis-4-(4-{[4-(4-chlorophenyl)-6,6-dimethyl-5,6-dihydro-2H-pyran-3-yl]methyl}piperazin-1-yl)-N-[(4-{[(4-methoxycyclohexyl)methyl]amino}-3-nitrophenyl)sulfonyl]-2-(1H-pyrrolo[2,3-b]pyridin-5-yloxy)benzamide]	7.51 nM
O=C(NS(=O)(=O)c1ccc(OCC2(F)CCOCC2)c([N+](=O)[O-])c1)c1ccc(N2CCN(CC3=C(c4ccc(Cl)cc4)CCC4(CCCC4)C3)CC2)cc1Oc1cnc2[nH]ccc2c1 [Example 73, 4-(4-{[8-(4-chlorophenyl)spiro[4.5]dec-7-en-7-yl]methyl}piperazin-1-yl)-N-({4-[(4-fluorotetrahydro-2H-pyran-4-yl)methoxy]-3-nitrophenyl}sulfonyl)-2-(1H-pyrrolo[2,3-b]pyridin-5-yloxy)benzamide]	23.7 nM
CO[C@H]1CC[C@H](CNc2ccc(S(=O)(=O)NC(=O)c3ccc(N4CCN(CC5=C(c6ccc(Cl)cc6)CCC6(CCCC6)C5)CC4)cc3Oc3cnc4[nH]ccc4c3)cc2[N+](=O)[O-])CC1 [Example 74, Trans-4-(4-{[8-(4-chlorophenyl)spiro[4.5]dec-7-en-7-yl]methyl}piperazin-1-yl)-N-[(4-{[(4-methoxycyclohexyl)methyl]amino}-3-nitrophenyl)sulfonyl]-2-(1H-pyrrolo[2,3-b]pyridin-5-yloxy)benzamide]	57 nM
CC1(C)CCC(c2ccc(Cl)cc2)=C(CN2CCN(c3ccc(C(=O)NS(=O)(=O)c4ccc(NCC5CCOCC5)c([N+](=O)[O-])c4)c(Oc4cnc5[nH]ccc5c4)c3)CC2)C1 [Example 75, 4-(4-{[2-(4-chlorophenyl)-5,5-dimethylcyclohex-1-en-1-yl]methyl}piperazin-1-yl)-N-({3-nitro-4-[(tetrahydro-2H-pyran-4-ylmethyl)amino]phenyl}sulfonyl)-2-(1H-pyrrolo[2,3-b]pyridin-5-yloxy)benzamide]	15.1 nM
CC1(C)CCC(c2ccc(Cl)cc2)=C(CN2CCN(c3ccc(C(=O)NS(=O)(=O)c4cnc(OCC5CCOCC5)c(C#N)c4)c(Oc4cnc5[nH]ccc5c4)c3)CC2)C1 [Example 76, 4-(4-{[2-(4-chlorophenyl)-5,5-dimethylcyclohex-1-en-1-yl]methyl}piperazin-1-yl)-N-{[5-cyano-6-(tetrahydro-2H-pyran-4-ylmethoxy)pyridin-3-yl]sulfonyl}-2-(1H-pyrrolo[2,3-b]pyridin-5-yloxy)benzamide]	511 nM
CC1(C)CCC(CN2CCN(c3ccc(C(=O)NS(=O)(=O)c4ccc(OCC5COCCN5C(=O)OC(C)(C)C)c([N+](=O)[O-])c4)c(Oc4cnc5[nH]ccc5c4)c3)CC2)=C(c2ccc(Cl)cc2)C1 (stereo not shown) [Example 77, tert-butyl 3-{[4-({[4-(4-{[2-(4-chlorophenyl)-4,4-dimethylcyclohex-1-en-1-yl]methyl}piperazin-1-yl)-2-(1H-pyrrolo[2,3-b]pyridin-5-yloxy)benzoyl]amino}sulfonyl)-2-nitrophenoxy]methyl}morpholine-4-carboxylate]	762 nM
CC1(C)CCC(CN2CCN(c3ccc(C(=O)NS(=O)(=O)c4ccc(OCC5COCCN5)c([N+](=O)[O-])c4)c(Oc4cnc5[nH]ccc5c4)c3)CC2)=C(c2ccc(Cl)cc2)C1 (stereo not shown) [Example 78, 4-(4-{[2-(4-chlorophenyl)-4,4-dimethylcyclohex-1-en-1-yl]methyl}piperazin-1-yl)-N-{[4-(morpholin-3-ylmethoxy)-3-nitrophenyl]sulfonyl}-2-(1H-pyrrolo[2,3-b]pyridin-5-yloxy)benzamide]	12.5 nM
O=C(NS(=O)(=O)c1ccc(NCC2CCOCC2)c([N+](=O)[O-])c1)c1ccc(N2CCN(CC3=C(c4ccc(Cl)cc4)CCC4(CCCC4)C3)CC2)cc1Oc1cnc2[nH]ccc2c1 [Example 79, 4-(4-{[8-(4-chlorophenyl)spiro[4.5]dec-7-en-7-yl]methyl}piperazin-1-yl)-N-({3-nitro-4-[(tetrahydro-2H-pyran-4-ylmethyl)amino]phenyl}sulfonyl)-2-(1H-pyrrolo[2,3-b]pyridin-5-yloxy)benzamide]	64.9 nM
CC1(C)CCC(CN2CCN(c3ccc(C(=O)NS(=O)(=O)c4ccc(NC5CCN(S(C)(=O)=O)CC5)c([N+](=O)[O-])c4)c(Oc4cnc5[nH]ccc5c4)c3)CC2)=C(c2ccc(Cl)cc2)C1 [Example 80, 4-(4-{[2-(4-chlorophenyl)-4,4-dimethylcyclohex-1-en-1-yl]methyl}piperazin-1-yl)-N-[(4-{[1-(methylsulfonyl)piperidin-4-yl]amino}-3-nitrophenyl)sulfonyl]-2-(1H-pyrrolo[2,3-b]pyridin-5-yloxy)benzamide]	68.6 nM
